Activity calls are given as the source filed them.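 The calls were made as follows: active = fitted half-maximal concentration below 30 µM for cell fluorescence in pump-free yeast, so likely self-fluorescent; inactive = the rest.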

The results in this text go back to PubChem BioAssay AID588620 (NMMLSC, 2011).

The nature of the assay: concentration-dependent intrinsic compound fluorescence, S. cerevisiae AD/pABC3, flow cytometry, Cherry Pick1 hits, artefact control for antifungal efflux pump inhibitor project, dose response (AID 588620).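 Also: red emission of unstained cells excited at 488 nm measured in PE-Texas Red channel; cell median fluorescence as percent of DMSO wells so 100% equals vehicle baseline.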 Conditions: S. cerevisiae AD/pABC3 compound autofluorescence, flow cytometry; at 33.1 µM (top of the series). (A flow cytometer gives signals particle by particle.)

Regarding `Nc1ccc2nc(-c3cccc(-c4nc5ccc(N)cc5[nH]4)c3)[nH]c2c1`, the fluorescence response, % of control is 99.3% (inactive). For `Cc1ccc2sc(N(CCCN(C)C)C(=O)c3ccc(Br)s3)nc2c1C` the value was 78.2% (inactive).

Consider `COc1cc(/C=C(\C#N)c2nc3ccccc3n2C)cc(OC)c1O`, for which the fluorescence response, % of control is 333% (inactive). Regarding `COC(=O)C1=C(C)N=c2s/c(=C/c3ccoc3)c(=O)n2C1c1ccccc1` (centres undefined), the fluorescence response, % of control was 821% (inactive). With `O=C(Nc1ccc(NC(=O)c2cccs2)cc1)c1ccc2ccccc2c1`, the fluorescence response, % of control is 125% (inactive). For the compound `CC(C)(C)C1CCC(OC(=O)C[N+]2(C)CCCC2)CC1` (centres undefined), the fluorescence response, % of control is 109% (inactive). As to `O=C(CSc1nnc(-c2cccnc2)n1Cc1ccco1)c1ccc(Cl)c(Cl)c1`, the fluorescence response, % of control was 81.2% (inactive). As to `CCCCCCCCn1ccc(=N)cc1`, the fluorescence response, % of control is 102% (inactive). Turning to `Cc1ccc(CC2CC(=O)N(Cc3ccco3)C2=O)cc1` (centres undefined), the fluorescence response, % of control is 93.5% (inactive).

For the compound `CCO[C@@H]1OC(C(=O)Nc2ccccc2)=C[C@H](c2ccc(Br)cc2)[C@H]1CCCO`, the fluorescence response, % of control was 102% (inactive). Take `Cc1ccc(Cn2nnc3c(=O)[nH]c(C4CCN(S(=O)(=O)c5ccccc5F)CC4)nc32)cc1`: the fluorescence response, % of control is 90.8% (inactive). In the case of `Cc1ccc(-c2cc(C(=O)Nc3ccc(S(=O)(=O)Nc4onc(C)c4C)cc3)c3ccccc3n2)cc1`, the fluorescence response, % of control is 88.3% (inactive). In the case of `COc1ccc(Cn2nnc3c(=O)[nH]c(C4CCN(S(=O)(=O)c5ccc(C)cc5)CC4)nc32)cc1` it was 95.7% (inactive); in that of `Cc1ccc(CSC2=Nc3ccccc3C3=NC(CC(=O)NCc4ccco4)C(=O)N23)cc1` (centres undefined), 89% (inactive). As to `O=C(NC(=Nc1nc2ccccc2o1)NC(=O)c1ccccc1)c1ccccc1`, the fluorescence response, % of control was 102% (inactive). `CC(C)OC(=O)c1ccc(COC(=O)c2cccc(-c3nnc(-c4ccccc4)o3)c2)cc1`: the fluorescence response, % of control is 118% (inactive). Turning to `COc1ccccc1-c1sc2ccccc2c1-c1ccc(OCCN2CCOCC2)cc1`, the fluorescence response, % of control was 99.3% (inactive). As to `O=C(/C=C/c1cccs1)N1CCC2(CC1)Oc1ccc(F)cc1C(=O)C21CC(c2ccccc2)=NO1` (centres undefined), the fluorescence response, % of control was 96.4% (inactive). `Cc1noc(C)c1COc1ccccc1C(=O)N1CCN(c2cccc(C(F)(F)F)c2)CC1`: the fluorescence response, % of control is 88.1% (inactive).

With `O=C(O)C(c1ccccc1)N1C(=O)/C(=C\c2ccc(O)c(O)c2)SC1=S` (centres undefined), the fluorescence response, % of control is 226% (inactive). Consider `CCOC(=O)CC(=O)c1cc(OC)c(OC)c(OC)c1`, for which the fluorescence response, % of control is 96.1% (inactive). On to `CCC1Nc2ncnc(N3CCN(c4ccccc4)CC3)c2N(Cc2ccccc2)C1=O` (centres undefined), for which the fluorescence response, % of control was 103% (inactive). For the compound `COc1ccc(/C=C2\SC(=O)N(CCC(=O)Nc3ccccc3)C2=O)cc1OC`, the fluorescence response, % of control was 99.1% (inactive).

As for `COc1ccc(-n2ncc3c2CC(C)(C)CC3NC(=O)c2cnc(C)cn2)cc1` (centres undefined), the fluorescence response, % of control was 99.3% (inactive). Regarding `Cc1nnc(N/N=C/c2cc([N+](=O)[O-])c(N3CCC(C)CC3)cc2N2CCC(C)CC2)n1N`, the fluorescence response, % of control is 97.1% (inactive). On to `CS(=O)(=O)Nc1ccc(C(=O)Nc2ccc3c(c2)OCCO3)cc1`, for which the fluorescence response, % of control was 95.7% (inactive). As for `CCOc1ccccc1-c1nc(C(N)=O)c2[nH]c(=O)n(-c3ccccc3)c2n1`, the fluorescence response, % of control was 90.8% (inactive). With `COc1ccc(N2C(=O)CC(N3CCN(c4ccc(C(=O)c5cccnc5)cc4)CC3)C2=O)cc1` (centres undefined), the fluorescence response, % of control was 88.6% (inactive). For `COc1ccc(-c2nc3ccccc3c(=O)n2CCOc2cc(C)ccc2C)cc1` the value was 135% (inactive); for `OCCN1CCN(CC/C=C2/c3ccccc3Sc3ccc(C(F)(F)F)cc32)CC1`, 332% (inactive); for `COc1ccc(-c2sc3cc4c(cc3c2-c2ccc(OCCN3CCCCC3)cc2)OCO4)cc1`, 91.7% (inactive). For the compound `Cc1cccc(C)c1-n1c(SCC(=O)N2CC(=O)Nc3ccccc32)nc2ccccc2c1=O`, the fluorescence response, % of control was 118% (inactive). For `CCC(=O)NC(c1ccco1)c1cc(Cl)c2cccnc2c1O` (centres undefined) the value was 99.8% (inactive); for `O=C1C(Cl)=C(Nc2ccc3cn[nH]c3c2)C(=O)c2ccccc21`, 145% (inactive); for `NC1=NC[C@H](Cc2ccc(O)cc2)N1CCCCC1CCCCC1`, 92.2% (inactive). Take `Cc1ccc(C(=O)N2CCC3(CC2)Oc2ccc(Cl)cc2C(=O)C32CC(c3ccc(Cl)cc3)=NO2)s1` (centres undefined): the fluorescence response, % of control was 94.5% (inactive). Regarding `O=C1C(Cc2ccccc2)Nc2ncnc(N3CCN(c4ccccc4)CC3)c2N1Cc1ccccc1` (centres undefined), the fluorescence response, % of control is 105% (inactive). In the case of `CCOc1ccc(C(=O)Nc2cccc(-c3cc4ccccc4oc3=O)c2)cc1[N+](=O)[O-]` it was 94.4% (inactive); in that of `COc1cccc(-c2sc3ccc(OC)cc3c2-c2ccc(OCCN(C)C)cc2)c1`, 126% (inactive); in that of `O=C(NCCC1=CCCCC1)C1CCC(CNc2nc(=S)[nH]c3ccccc23)CC1` (centres undefined), 108% (inactive). For `CCCCCCCCCC[N+](C)(C)CC/C=C1/c2ccccc2Sc2ccc(Cl)cc21`, the fluorescence response, % of control was 105% (inactive). In the case of `COc1ccc(C2=NCC(=O)N(CC(=O)NCc3ccco3)c3sc4c(c32)CCCC4)cc1` it was 95.7% (inactive); in that of `CCSc1cc(N2CCCC2)nc(-c2ccc(C)cc2)n1`, 101% (inactive); in that of `C[C@@H]1CN(C(=O)c2cc(COc3cccc(C(F)(F)F)c3)on2)C[C@H](C)O1`, 97.1% (inactive).

In the case of `O=C(O)CCCN1C(=O)/C(=C\c2ccc(-c3nc4ccccc4s3)o2)SC1=S`, the fluorescence response, % of control was 288% (inactive). In the case of `C[C@H](CO)N1C[C@H](C)[C@@H](CN(C)S(=O)(=O)c2cccs2)Oc2c(NC(=O)Nc3ccc4c(c3)OCO4)cccc2C1=O`, the fluorescence response, % of control is 96.9% (inactive). On to `COc1ccc2nc(C)cc(Sc3nc4ccccc4s3)c2c1`, for which the fluorescence response, % of control is 100% (inactive). Consider `O=C(c1ccoc1)N1CCC2(CC1)Oc1ccc(Cl)cc1C(=O)C21CC(c2ccc(Cl)cc2)=NO1` (centres undefined), for which the fluorescence response, % of control was 119% (inactive). Take `O=C(NC1CCCCC1)c1cc2ccccc2cc1O`: the fluorescence response, % of control is 78.8% (inactive). For `Cc1ccc(/C=c2\sc3nc(-c4cccs4)nn3c2=O)o1` the value was 118% (inactive); for `COC(=O)c1ccc(CN2CCC(Oc3cccc(C(=O)N4CCCC4)c3)CC2)cc1`, 95.7% (inactive); for `CCCCCCCCCCOC(=O)Cn1c(COc2ccc(Cl)cc2)[n+](C)c2ccccc21`, 106% (inactive). Consider `CCCCn1c(=N)n(CC(O)COc2ccc(C)cc2)c2ccccc21` (centres undefined), for which the fluorescence response, % of control is 106% (inactive). As for `COc1cc(/C=C2/CC/C(=C/c3ccc(O)c(OC)c3)C2=O)ccc1O`, the fluorescence response, % of control is 347% (inactive). For the compound `COc1ccc(C(=O)NC2CCCc3c2cnn3-c2cccc(C)c2C)c(OC)n1` (centres undefined), the fluorescence response, % of control is 75.9% (inactive). For `CC(C)C(=O)N1CCC2(CC1)Oc1ccc(F)cc1C(=O)C21CC(c2ccc(Cl)cc2)=NO1` (centres undefined) the value was 105% (inactive); for `CCOC(=O)c1c(-c2ccc(-c3ccccc3)cc2)csc1NC(=O)CNCCN(C)C`, 135% (inactive). Consider `COc1ccc(CCOC(=O)c2ccc(N)c([N+](=O)[O-])c2)cc1`, for which the fluorescence response, % of control is 110% (inactive). On to `CCOC(=O)c1ccc(-c2cc(C)no2)[nH]1`, for which the fluorescence response, % of control is 99.8% (inactive). Consider `CCc1ccc(C2=NN(S(C)(=O)=O)C(c3cccs3)C2)cc1` (centres undefined), for which the fluorescence response, % of control is 113% (inactive). In the case of `Clc1ccc(Cn2nc(-c3ccccc3)nc2-c2ccccc2)cc1` it was 108% (inactive); in that of `CC1(C)CC2(CC(c3cccs3)c3cc(Cl)c(O)cc3O2)NC(=S)N1` (centres undefined), 113% (inactive); in that of `COc1ccc2c(-c3ccc(OCCN4CCOCC4)cc3)c(-c3ccccc3OC)sc2c1`, 102% (inactive).

With `CCCCOc1ccc(NC2=NC3(CCCC3)N=C(N)N2)cc1`, the fluorescence response, % of control is 73.8% (inactive). In the case of `COc1ccc(Cn2c(-c3ccccc3)nc3c(c(=O)c4ccccc4n3C)c2=O)cc1` it was 102% (inactive); in that of `O=C(c1ccc2c(c1)OCO2)N1CCC2(CC1)Oc1ccc(Cl)cc1C(=O)C21CC(c2ccccc2)=NO1` (centres undefined), 90.9% (inactive); in that of `O=C(c1ccc2c(c1)OCO2)N1CCC2(CC1)Oc1ccc(F)cc1C(=O)C21CC(c2ccc(Cl)cc2)=NO1` (centres undefined), 165% (inactive). As to `CCCCSC1=N/C(=C/c2ccsc2)C(=O)N1c1ccccc1`, the fluorescence response, % of control was 95.7% (inactive). In the case of `COc1ccc(C(=O)NC2CC(C)(C)Cc3c2cnn3-c2ccccc2)c(OC)c1` (centres undefined) it was 115% (inactive); in that of `NC(=O)c1nc(-c2cccs2)nc2c1[nH]c(=O)n2-c1ccc(F)cc1`, 93.5% (inactive); in that of `CC(=O)Nc1ccc(NC(=O)Cc2ccc(F)cc2)cc1`, 106% (inactive). With `Cc1noc(C)c1C(=O)N1CCC2(CC1)Oc1ccc(F)cc1C(=O)C21CC(c2ccc(Cl)cc2)=NO1` (centres undefined), the fluorescence response, % of control was 90.5% (inactive). For `CC(C)=C1C2CCC1C1C(=O)N(c3nc(-c4ccc(C(C)C)cc4)c(C)s3)C(=O)C21` (centres undefined) the value was 111% (inactive); for `Cc1ccc(C(=O)N2CCC3(CC2)Oc2ccc(Cl)cc2C(=O)C32CC(c3cccnc3)=NO2)s1` (centres undefined), 127% (inactive).
